Data as given in patent US12533377B2 (OXYMO TECHNOLOGIES INC., priority 2016, dated 2026).
Like-named read-outs stand apart in the source and are kept apart here. Marks after values point to notes of the source that are not given here.

Experiments:
[1] = test system: chorioallantoic membrane of a fertilized hen egg; experiment: Ocular irritation test HET-CAM
Procedure: The ocular irritation test used was the substitution test HET-CAM (Hen's Egg Test—Chorioallantoic Membrane), published in the Official Journal dated 26 Dec. 1996. It is recommended by ICCVAM.
At 0.5, 2 and 5 mins post-contact, the three following criteria are observed and scored: hemorrhage, coagulation and hyperemia.

HSV-1 [2] = experiment: Model 1: Mixture 1 on cells infected with HSV-1, qPCR of viral genome in BHK-21; type: cell-based, Herpes simplex 1
Source text: (§1) Symp. Quant. […] Model 1:

BHK-21 line [3] = experiment: Model 1: cytotoxicity on the BHK-21 line, qPCR of 18S gene; type: cell-based; conditions: ACV 1 mg/L, 8 h post-contact of 2 mins
Source text: as §1

BHK-21 line [4] = experiment: Model 3: cytotoxicity on the BHK-21 line, qPCR of 18S gene; type: cell-based; conditions: ACV 1 mg/L, 8 h post-contact of 2 mins
Source text: as §1

HSV-1 [5] = experiment: Model 3: Mixture 1 on cells not yet infected and on free HSV-1, qPCR of viral genome in BHK-21; type: cell-based, Herpes simplex 1
Source text: as §1

HSV-1 [6] = experiment: Model 2: Mixture 1 on cells not yet infected with HSV-1, qPCR of viral genome in BHK-21; type: cell-based, Herpes simplex 1
Source text: as §1

BHK-21 line [7] = experiment: Model 2: cytotoxicity on the BHK-21 line, qPCR of 18S gene; type: cell-based; conditions: ACV 1 mg/L, 8 h post-contact of 2 mins
Source text: as §1

BHK-21 line [8] = experiment: Model 4: cytotoxicity on the BHK-21 line, qPCR of 18S gene; type: cell-based; conditions: ACV 10^3 mg/L, 8 h post-contact of 2 mins
Source text: as §1

HSV-1 [9] = experiment: Model 4: Mixture 1 on HSV-1 before infection, qPCR of viral genome in BHK-21; type: cell-based, Herpes simplex 1
Source text: as §1

[10] = test system: immature erythrocytes (reticulocytes)
Procedure: The morbidity, the mortality, the weight of the animals and the clinical parameters (temperature, skin, hair, eyes, mucous membranes, secretions and excretions, respiratory and neurological function, gait and posture) were noted. 36 h to 48 h after the second treatment, the blood of the animals was collected and analyzed in flow cytometry (toxicity control: reduction of the proportion of immature erythrocytes (CD-71-positive). The proportion of micro-nucleated immature erythrocytes (reticulocytes) was evaluated on 4,000 observations per blood sample. Each rat population (n=10) for each tested substance represents 40,000 observations (Table 5).

[11] = control Line + (PBS + HSV), ACV 1 mg/L, 8 h post-contact of 2 mins
[12] = 100 mg/kg intraperitoneal, female
[13] = 100 mg/kg intraperitoneal, male
[14] = 150 mg/kg intraperitoneal, female
[15] = 150 mg/kg intraperitoneal, male

With `CCCCCCCCCCCCOS(=O)(=O)[O-].[Na+]` [1% SDS, sodium dodecyl sulfate] the “IS of the positive substances of reference” value [1] was 10±2.
With `Nc1nc2c(ncn2COCCO)c(=O)[nH]1` [ACV, acyclovir] the “Reduction of the HSV-1 replication at t 8 h” value (from here on “Reduction”) (HSV-1 [2]; contact 2 min, ACV 10^3 μg/L) was −12%, the “HSV (%), replication of HSV-1 by qPCR” value (HSV-1 [2]; [11]) was 76 (1) % and the “18S (%), multiplication of the BHK-21 line by qPCR” value (shortened to “18S (%), multiplication”) (BHK-21 line [3]; control Line + (PBS + HSV)) was 118 (1) %. The “18S (%), multiplication” value (BHK-21 line [3]; control Line + (PBS − HSV)) was 108 (1) %, the “18S (%), multiplication” value (BHK-21 line [4]; control Line + (PBS + HSV)) was 92 (1) % and the “18S (%), multiplication” value (BHK-21 line [4]; control Line + (PBS − HSV)) was 111 (1) %. For the same compound, the “Reduction” value (HSV-1 [5]; contact 2 min, ACV 10^3 μg/L) was −6%, the “HSV (%), replication of HSV-1 by qPCR” value (HSV-1 [5]; [11]) was 86 (1) % and the “Reduction” value (HSV-1 [6]; contact 2 min, ACV 10^3 μg/L) was −1%. The “HSV (%), replication of HSV-1 by qPCR” value (HSV-1 [6]; [11]) was 61 (1) %, the “18S (%), multiplication” value (BHK-21 line [7]; control Line + (PBS + HSV)) was 62 (1) % and the “18S (%), multiplication” value (BHK-21 line [7]; control Line + (PBS − HSV)) was 57 (1) %. For the same compound, the “18S (%), multiplication” value (BHK-21 line [8]; control Line + (PBS + HSV)) was 111%, the “18S (%), multiplication” value (BHK-21 line [8]; control Line + (PBS − HSV)) was 97% and the “Reduction” value (HSV-1 [9]; contact 2 min, [ACV]: 1 g/L) was −52^# %. The “HSV (%), replication of HSV-1 by qPCR” value (HSV-1 [9]; control Line + (PBS + HSV), ACV 10^3 mg/L, 8 h post-contact of 2 mins) was 54%.
In the case of `O=P1(N(CCCl)CCCl)NCCCO1` (stereo not shown) [Cyclophosphamide, cyclophosphamide], the “Micro-nucleated reticulocytes (%)” value ([10]; 5 mg/kg intravenous, female) is reported as 0.40 ± 0.13%, the “Reticulocytes (%)” value ([10]; 5 mg/kg intravenous, female) is reported as 2.41 ± 0.54% and the “Micro-nucleated reticulocytes (%)” value ([10]; 5 mg/kg intravenous, male) is reported as 0.56 ± 0.17%. For the same compound, the “Reticulocytes (%)” value ([10]; 5 mg/kg intravenous, male) was 3.99 ± 0.49%, the “Micro-nucleated reticulocytes (%)” value ([10]; 10 mg/kg intravenous, female) was 1.02 ± 0.26 % and the “Reticulocytes (%)” value ([10]; 10 mg/kg intravenous, female) was 1.30 ± 0.43%. For the same compound, the “Micro-nucleated reticulocytes (%)” value ([10]; 10 mg/kg intravenous, male) was 1.62 ± 0.29% and the “Reticulocytes (%)” value ([10]; 10 mg/kg intravenous, male) was 1.95 ± 0.59%.
In the case of `CCOS(C)(=O)=O` [Methanesulfonate, ethyl methanesulfonate], the “Micro-nucleated reticulocytes (%)” value [10, 12] is reported as 0.48 ± 0.16 %, the “Reticulocytes (%)” value [10, 12] is reported as 1.86 ± 0.25% and the “Micro-nucleated reticulocytes (%)” value [10, 13] is reported as 0.68 ± 0.35 %. For the same compound, the “Reticulocytes (%)” value [10, 13] was 1.41 ± 0.32%, the “Micro-nucleated reticulocytes (%)” value [10, 14] was 0.59 ± 0.26 % and the “Reticulocytes (%)” value [10, 14] was 0.45 ± 0.33%. The “Micro-nucleated reticulocytes (%)” value [10, 15] was 0.81 ± 0.48 % and the “Reticulocytes (%)” value [10, 15] was 1.33 ± 0.34%.
For `[Na+].[OH-]` [NaOH 0.1M, NaOH], the “IS of the positive substances of reference” value [1] was 15±3.
